According to patent publication US9840481B2, “Allosteric modulators of nicotinic acetylcholine receptors” (MERCK SHARP & DOHME CORP., priority 2016, dated 2017):
Read-outs that look alike come from different tables or passages of the source.

Target: T1, human α7 nAChR stably expressed in a HEK cell line (with human RIC-3) (Homo sapiens, UniProt P36544)
T1 construct: PrecisION hnAChR α7/RIC-3
Assay: Automated patch-clamp electrophysiology functional assay (Assay A), IonFlux HT, whole-cell population patch
Format: cell-based
Protocol: The α7 nAChR positive allosteric modulator (PAM) activity of the present compounds may be tested using assays known in the art. The α7 nAChR PAMs described herein have activities in an automated patch-clamp electrophysiology functional assay as described in the examples. The assay was performed using the IonFlux HT in a whole-cell, population patch configuration. See Golden et al. Assay Drug Dev. Technol. (2011) 9:608-619. The compounds were assessed for their ability to modulate the function of the human α7 nAChR stably expressed in a HEK cell line both in the presence, and in the absence of the natural α7 agonist acetylcholine. By performing a series of such measurements at different concentrations, the effective concentration of the α7 nAChR PAMs (EC50) was determined. See Spencer et al. Assay Drug Dev. Technol. (2012) 10:313-324.
Direct activation of α7 (agonism), and potentiation of 5 acetylcholine-evoked α7 currents was determined as follows:
Automated Patch-Clamp Electrophysiology Functional Assay (Assay A)
Automated patch-clamp electrophysiology was performed using the IonFlux HT (Fluxion Biosciences Inc., San Francisco, Calif.) in the whole-cell, population patch configuration. Test compounds were assessed for their ability to modulate the function of the α7 nicotinic acetylcholine receptor both in the presence, and in the absence of the natural α7 agonist acetylcholine. A HEK cell line stably expressing both human RIC-3 and human α7 (PrecisION hnAChR α7/RIC-3, Eurofins Pharma, St. Charles, Mo.) was cultured in 175 cm^2 triple-layer tissue culture flasks to no more than 90% confluency in DMEM/F-12 growth media supplemented with 10% heat-inactivated fetal bovine serum, 1% non-essential amino acids, 0.625 μg/mL Puromycin, and 400 μg/mL Geneticin. Immediately prior to assay, cells were detached by first aspirating growth media, rinsing with Dulbecco's phosphate buffered saline, and then adding 10 mL of Accutase (Innovative Cell Technologies, San Diego, Calif.) to the flask and then incubating at 37° C. for 5 minutes. Detached cells were then recovered by the addition of 40 mL of CHO-serum-free media supplemented with 25 mM HEPES, and rocked gently in a 50 mL conical tube for 20 minutes prior to patch-clamp assay. After recovery, cells were pelleted by centrifugation at 1,000 RPM for 1 minute in a compact bench top centrifuge; recovery media was aspirated and cells were resuspended in external recording solution (150 mM NaCl, 5 mM KCl, 2 mM CaCl2, 1 mM MgCl2, 10 mM HEPES, 12 mM dextrose) to a density of 5.0×10^6 cells/mL. The cell suspension was added to the cell inlet wells on an IonFlux HT population patch plate which had previously been rinsed and primed with deionized H2O. Test compounds were serially diluted in DMSO and then resuspended to the final test concentration in external recording solution, with, or without […] acetylcholine added to the external recording solution; test compounds were then transferred to the IonFlux HT population patch plate. Internal recording solution (110 mM TrisPO4, 28 mM TrisBase, 0.1 mM CaCl2, 2 mM MgCl2, 11 mM EGTA, 4 mM MgATP) was added to the internal recording solution inlet wells on the IonFlux HT patch plate previously loaded with cells and test compounds, and the plate loaded into the IonFlux HT instrument. A protocol was executed on the IonFlux HT to trap the cells, break into the cells, and establish the whole-cell recording configuration; cells were voltage-clamped at a holding potential of −60 mV for the duration of the experiment, all experiments were conducted at room temperature, and the IonFlux HT injection pressure was 8 psi for solution applications. Upon establishing the whole-cell configuration, external recording solution was perfused into the recording chambers for 120 seconds and then 40 μM acetylcholine was applied for 1 second and immediately washed off with external recording solution for 60 seconds. […]

[1] = automated patch-clamp electrophysiology functional assay (Assay A), potency class by EC50, read-out: α7 nAChR Potency
[2] = electrophysiology EC50, HEK cells expressing human α7/RIC-3, 40 μM acetylcholine, holding potential −60 mV, room temperature, read-out: α7 nAChR EC50

T1 sequence (P36544 23-502): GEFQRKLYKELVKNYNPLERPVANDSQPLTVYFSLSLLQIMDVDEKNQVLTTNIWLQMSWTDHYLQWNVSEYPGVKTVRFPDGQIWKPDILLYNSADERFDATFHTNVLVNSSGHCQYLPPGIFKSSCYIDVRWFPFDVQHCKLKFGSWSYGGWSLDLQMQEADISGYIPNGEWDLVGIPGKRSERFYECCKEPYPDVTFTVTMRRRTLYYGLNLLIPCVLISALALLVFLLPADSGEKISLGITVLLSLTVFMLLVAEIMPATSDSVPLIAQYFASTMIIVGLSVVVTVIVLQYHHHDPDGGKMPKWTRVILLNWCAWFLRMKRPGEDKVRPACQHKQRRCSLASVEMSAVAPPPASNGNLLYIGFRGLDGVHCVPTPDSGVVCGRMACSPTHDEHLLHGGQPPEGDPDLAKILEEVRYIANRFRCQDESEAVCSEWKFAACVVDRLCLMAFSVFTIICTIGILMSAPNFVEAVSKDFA

SMILES	EC50 [1] [nM]	EC50 [2] [nM]
NS(=O)(=O)c1ccc([C@@H]2C[C@H]2c2cnc(C3CCCC3)o2)cc1 [Example L21]	500 to 5000	
NS(=O)(=O)c1ccc([C@@H]2C[C@H]2c2noc(-c3cncc(F)c3)n2)cc1 [Example I36]	500 to 5000	1400
CC1(C)[C@@H](c2ccc(S(N)(=O)=O)cc2)[C@@H]1c1nnc(-c2cccc(F)c2)o1 [Example G3]	500 to 5000	740
CC1(C)[C@H](c2ccc(S(N)(=O)=O)cc2)[C@H]1c1cn(-c2cccc(F)c2)nn1 [Example L5]	500 to 5000	770
CC1(C)[C@@H](c2ccc(S(N)(=O)=O)cc2)[C@@H]1c1nnc(-c2ccccc2C(F)(F)F)o1 [Example G4]	500 to 5000	
CC1(C)[C@@H](c2ccc(S(C)(=O)=O)cc2)[C@@H]1c1nc(-c2ccccc2)no1 (relative stereo) [Example 33]	500 to 5000	1100
NS(=O)(=O)c1ccc([C@@H]2C[C@H]2c2cnc(-c3ccccc3)s2)cc1 [Example 27, 4-[(1R,2R)-2-(2-Phenyl-1,3-thiazol-5-yl)cyclopropyl]benzenesulfonamide]	500 to 5000	620
CC1(C)[C@H](c2ccc(S(N)(=O)=O)cc2)[C@H]1c1cn(-c2ccccc2)nn1 [Example 12, 4-[(1R,3R)-2,2-Dimethyl-3-(1-phenyl-1H-1,2,3-triazol-4-yl)cyclopropyl]benzenesulfonamide]	500 to 5000	910
C#Cc1ccc(-c2nc([C@H]3[C@H](c4ccc(S(N)(=O)=O)cc4)C3(C)C)no2)cc1 [Example H11]	500 to 5000	1900
CC1(C)[C@@H](c2ccc(S(N)(=O)=O)cc2)[C@@H]1c1nnc(-c2cccnc2C2CC2)o1 [Example G12]	500 to 5000	
CC1(C)C(c2ccc(OS(N)(=O)=O)cc2)C1c1nc(-c2ccccc2)no1 (stereo not drawn) [Example 30, 4-[trans-2,2-Dimethyl-3-(3-phenyl-1,2,4-oxadiazol-5-yl)cyclopropyl]phenyl sulfamate]	500 to 5000	1400
CC(C)c1noc([C@@H]2[C@@H](c3ccc(S(N)(=O)=O)cc3)C2(C)C)n1 [Example B1]	500 to 5000	1500
CC1(C)[C@H](c2ccc(S(N)(=O)=O)cc2)[C@H]1c1noc(C2CCCCC2)n1 [Example L16]	500 to 5000	
CC1(C)[C@H](c2ccc(S(N)(=O)=O)cc2)[C@H]1c1nc(C2CCc3cc(F)ccc32)no1 (stereo partly drawn) [Example B14]	500 to 5000	1200
CC1(C)[C@@H](c2ccc(S(N)(=O)=O)cc2)[C@@H]1c1noc(-c2ccc(OC(F)(F)F)cc2)n1 [Example H13]	500 to 5000	
CC1(C)[C@H](c2ccc(S(N)(=O)=O)cc2)[C@H]1c1nc(C2(c3ccccc3)CC2)no1 [Example B13]	500 to 5000	4100
CC1(C)[C@@H](c2ccc(S(N)(=O)=O)cc2)[C@@H]1c1noc(-c2cccc(C3CC3)c2)n1 [Example H9]	500 to 5000	1400
NS(=O)(=O)c1ccc(C2C(c3ncc(-c4ccccc4)o3)C2(F)F)cc1 (racemic) [Example M1]	500 to 5000	
CC1(C)[C@@H](c2ccc(S(N)(=O)=O)cc2)[C@@H]1c1noc(-c2ccc(F)cc2Cl)n1 [Example H2]	500 to 5000	510
CC1(C)[C@H](c2ccc(S(N)(=O)=O)cc2)[C@H]1c1nc(C2CCOC2)no1 (stereo partly drawn) [Example B11]	5000 to 50000	5800
CC1(C)[C@H](c2ccc(S(N)(=O)=O)cc2)[C@H]1c1nc(-c2cccc(Br)c2)no1 [Example A14]	500 to 5000	
CC(C)(C)c1coc([C@@H]2[C@@H](c3ccc(S(N)(=O)=O)cc3)C2(C)C)n1 [Example J4]	500 to 5000	3200
Cn1ccc(-c2nc([C@H]3[C@H](c4ccc(S(N)(=O)=O)cc4)C3(C)C)no2)c1 [Example I10]	500 to 5000	

The next lines start with the values.

EC50 [1] [nM]	EC50 [2] [nM]	SMILES
500 to 5000	2900	CC1(C)C(c2ccc(S(N)(=O)=O)cc2)C1c1cc(-c2cccc(F)c2)on1 (racemic) [Example M6]
500 to 5000		CC1(C)[C@H](c2ccc(S(N)(=O)=O)cc2)[C@H]1c1nc(-c2ccccc2F)no1 [Example A12]
100 to 500	390	NS(=O)(=O)c1ccc([C@H]2[C@H](c3ncc(C4CCCC4)o3)C2(F)F)cc1 [Example K13]
100 to 500	160	CC1(C)C(c2ccc(S(N)(=O)=O)cc2)C1c1cc(C2CCCC2)on1 (stereo not drawn) [Example 34, 4-(trans-3-(5-Cyclopentylisoxazol-3-yl)-2,2-dimethylcyclopropyl)benzenesulfonamide]
100 to 500	500	NS(=O)(=O)c1ccc([C@@H]2C[C@H]2c2ncc(-c3ccccc3)o2)cc1 [Example 8, 4-[(1R,2R)-2-(5-Phenyl-1,3-oxazol-2-yl)cyclopropyl]benzenesulfonamide]
100 to 500	200	CC1(C)[C@@H](c2ccc(S(N)(=O)=O)cc2)[C@@H]1c1nc(CC2CC2)no1 [Example D27]
100 to 500	210	CC1(C)[C@@H](c2ccc(S(N)(=O)=O)cc2)[C@@H]1c1nc(C2(C(F)(F)F)CC2)no1 [Example D33]
100 to 500	190	NS(=O)(=O)c1ccc([C@@H]2C[C@H]2c2nc(C3CCCCC3)no2)cc1 [Example D8]
100 to 500	160	NS(=O)(=O)c1ccc([C@@H]2C[C@H]2c2nc(-c3ccc(F)cc3F)no2)cc1 [Example C13]
100 to 500	380	CC1(C)[C@@H](c2ccc(S(N)(=O)=O)cc2)[C@@H]1c1nc(-c2ccc(F)cc2F)co1 [Example K3]
≤ 100	83	CC1(C)[C@@H](c2ccc(S(N)(=O)=O)cc2)[C@@H]1c1noc(-c2c(F)ccc(F)c2F)n1 [Example 3, 4-((1S,3S)-2,2-Dimethyl-3-(5-(2,3,6-trifluorophenyl)-1,2,4-oxadiazol-3-yl)cyclopropyl) benzenesulfonamide]
100 to 500	380	CC(C)c1nsc(C2CC2c2ccc(S(N)(=O)=O)cc2)n1 (single isomer, unassigned; enantiomer b) [Example 18, 4-{trans-2-[3-(Propan-2-yl)-1,2,4-thiadiazol-5-yl]cyclopropyl}benzenesulfonamide, enantiomer B]
100 to 500	430	CC(C)c1noc([C@@H]2C[C@H]2c2ccc(S(N)(=O)=O)cc2)n1 [Example D11]
100 to 500	430	NS(=O)(=O)c1ccc([C@@H]2C[C@H]2c2nc(-c3ccccc3)co2)cc1 [Example 9, 4-[(1R,2R)-2-(4-Phenyl-1,3-oxazol-2-yl)cyclopropyl]benzenesulfonamide]
100 to 500	130	CC1(C)[C@@H](c2ccc(S(N)(=O)=O)cc2)[C@@H]1c1nc(C2CCCC2)co1 [Example K17]
100 to 500		CC1(C)[C@H](c2ccc(S(N)(=O)=O)cc2)[C@H]1c1noc(-c2ccccc2)n1 [Example L17]
100 to 500	110	CC1(C)[C@@H](c2ccc(S(N)(=O)=O)cc2)[C@@H]1c1noc(-c2c(F)cccc2F)n1 [Example H8]
100 to 500	200	NS(=O)(=O)c1ccc([C@@H]2C[C@H]2c2nc(-c3cccc(F)c3)cs2)cc1 [Example 14, 4-{(1R,2R)-2-[4-(3-Fluorophenyl)-1,3-thiazol-2-yl]cyclopropyl}benzenesulfonamide]
